# Reference: patent publication US11396511B2, “Substituted 9,13b-dihydro-1H-dibenzo[c,f]imidazo[1,5-a]azepin-3-ylbenzamides as anti-inflammatory and analgesic agents” (FRONTBIO CO., LTD., priority 2017, dated 2022)
# What was measured:
# Raw 264.7 cells [1] = test: Measurement of NO production in LPS-stimulated Raw 264.7 cells; type: cell-based; details: for inhibition at 12.5 µM / inhibition at 25 µM / inhibition at 50 µM / inhibition at 100 µM: Mus musculus, RAW264.7, LPS 100 ng/ml, 24 h
# Procedure: Raw 264.7 cells were plated in a 96-well cell culture plate (50,000 cells/well). Lipopolysaccharide (LPS) was diluted to 100 ng/ml and the dilution was added to the cell culture media The LPS stimulus was applied for 24 h to induce the activity of the Raw 264.7 cells and supernatants (50 μl each) obtained from the 96-well cell culture plate were plated in a new plate. 50 μl of a sulfanilamide solution was added and the reaction was allowed to proceed for 10 min. 50 μl of a NED solution was added and the reaction was allowed to proceed for 10 min. The amount of NO produced from the cells in the cell culture media was determined by measuring the absorbance at a wavelength of 540 nm.
# Raw 264.7 cells [2] = test: Cell viability measurement (MTS); type: cell-based
# Procedure: Raw 264.7 cells were plated in a 96-well cell culture plate (50,000 cells/well). The cell culture media were removed from the 96-well cell culture plate. 100 μl of MTS reagent (CellTiter 96 AQueous One Solution Cell Proliferation Assay, Promega) was added to each well and the reaction was allowed to proceed at 37° C. for 20 min. After the reaction was finished, the cell viability were determined by measuring the absorbance at a wavelength of 490 nm.
Compound,inhibition at 12.5 µM (Raw 264.7 cells [1]) [%],inhibition at 25 µM (Raw 264.7 cells [1]) [%],inhibition at 50 µM (Raw 264.7 cells [1]) [%],inhibition at 100 µM (Raw 264.7 cells [1]; 100 μM) [%],reduction of NO production (in words) (Raw 264.7 cells [1]; together with LPS (100 ng/ml)),"cell toxicity (cell viability, MTS) (Raw 264.7 cells [2])","reduction of NO production (in words) (Raw 264.7 cells [1]; 100 μM, LPS (100 ng/ml))"
O=C(O)c1ccccc1O [Salicylic acid],0,1.27,7.18,15.6,less effective in reducing the production of NO,no cell toxicities were observed,–
"NC1=NCC2c3ccccc3Cc3ccccc3N12 (stereo not drawn) [Epinastine, epinastine]",0,5.48,18.7,33.4,–,no cell toxicities were observed,found to reduce the production of NO
"CC(=O)Oc1ccccc1C(=O)O [Aspirin, acetylsalicylic acid (aspirin)]",0,0,9.29,12.4,less effective in reducing the production of NO,no cell toxicities were observed,–
